How the values were obtained:
[1] = Disulfide cleavage by cysteine, LC/MS; type: physicochemical; details: 15 uM compound, 0.2 mM cysteine, pH 7.0, 37 C
Experimental: (§1) For disulfide cleavage determination, the compounds were incubated at 15 μM with 0.2 mM cysteine or 4 mM GSH in 100 mM Tris buffer pH 7.0 containing 5% methanol at 37° C. Aliquots were taken at specified time points and the samples were analyzed by LC/MS on Sciex TripleTOF 5600 on a Hypersil Gold C18 column (100×2.1, 1.9 Thermo Scientific). The column was eluted by a gradient of buffer A (0.1% formic acid in 10 mM ammonium acetate) to buffer B (0.1% formic acid in 10 mM ammonium acetate in 90% acetonitrile), 5% B 0-0.5 min, 5-25% B 0.5-8 min, 25-75% B 8-13 min, and 75-95% B 13-13.5 min, 95% B 13.5-14.5 min, 95-5% B 14.5-15 min at 0.4 mL/min. All products were separated and characterized by LC/MS/MS in a positive ESI ion mode. All analytes had the protonated molecular MH+ as the major species with little source fragmentation. Full scan accurate mass peak areas were used to estimate relative abundance of each component.

Igrov-1 = assay: CellTiter-Glo toxicity, 4 days (Example 9); type: cell-based; details: 4 days of drug incubation, Table 7A
Experimental: (§2) The toxicity of various PBD monomer disulfide prodrugs and PBD dimer disulfide prodrugs was evaluated on UACC-257, Igrov-1 and A2058 cell lines. Cells were seeded in 384-well plate and treated with drug 24 hours later. After 4 days of drug incubation, the cell viability was determined using Promega CellTiter-Glo luminescent reagent, which measures ATP level (an indirect measure of cell number). The luminescent intensity was measured on PerkinElmer Envision reader. The relative cell viability was calculated by normalizing to non-drug treatment control and was graphed using KleidaGraph software package. IC50 value was determined as the concentration to obtain 50% of the maximum cell killing.

A2058 = assay: CellTiter-Glo toxicity, 4 days (Example 9); type: cell-based; details: 4 days of drug incubation, Table 7A
Experimental: as §2

UACC-257 = assay: CellTiter-Glo toxicity, 4 days (Example 9); type: cell-based; details: 4 days of drug incubation, Table 7A
Experimental: as §2

[2] = Disulfide cleavage by glutathione (GSH), LC/MS; type: physicochemical; details: 15 uM compound, 4 mM GSH, pH 7.0, 37 C
Experimental: as §1

In the case of `C=C1C[C@H]2C(O)N(C(=O)OCC3(SSCCO)CCCC3)c3cc(OC)c(OC)cc3C(=O)N2C1` (some centres unmarked) [PBD monomer disulfide prodrug 8], the “% Remaining at 24 h by Cys” value [1] is reported as 86.7%, the IC50 (Igrov-1; Homo sapiens, IGROV-1, 96 h) is reported as 172 nM and the IC50 (A2058; Homo sapiens, A2058, 96 h) is reported as 47.2 nM. The IC50 (UACC-257; Homo sapiens, UACC-257, 96 h) was 194 nM and the “% Remaining at 24 h by GSH” value [2] was 0.5%.

With `C=C1C[C@H]2C(O)N(C(=O)OCC3(SSCC)CCOC3)c3cc(OC)c(OC)cc3C(=O)N2C1` (single isomer, unassigned) [PBD monomer disulfide prodrug 11] the “% Remaining at 24 h by Cys” value [1] was 14.4%, the IC50 (Igrov-1; Homo sapiens, IGROV-1, 96 h) was 207 nM and the IC50 (A2058; Homo sapiens, A2058, 96 h) was 108 nM. For the same molecule, the IC50 (UACC-257; Homo sapiens, UACC-257, 96 h) was 331 nM and the “% Remaining at 24 h by GSH” value [2] was 0%.

With `C=C1C[C@H]2C(O)N(C(=O)OC[C@@H](C)SSCC)c3cc(OC)c(OC)cc3C(=O)N2C1` (some centres unmarked) [PBD monomer disulfide prodrug 12] the “% Remaining at 24 h by Cys” value [1] was 72.7%, the IC50 (Igrov-1; Homo sapiens, IGROV-1, 96 h) was 83.6 nM and the IC50 (A2058; Homo sapiens, A2058, 96 h) was 31.1 nM. The IC50 (UACC-257; Homo sapiens, UACC-257, 96 h) was 156 nM and the “% Remaining at 24 h by GSH” value [2] was 9.5%.

With `C=C1C[C@H]2C(O)N(C(=O)OCC3(SSCC)CCOC3)c3cc(OC)c(OC)cc3C(=O)N2C1` (single isomer, unassigned) [PBD monomer disulfide prodrug 30] the “% Remaining at 24 h by Cys” value [1] was 47.1%, the IC50 (Igrov-1) was 235 nM and the IC50 (A2058) was 108 nM. For the same molecule, the IC50 (UACC-257) was 308 nM and the “% Remaining at 24 h by GSH” value [2] was 0%.

In the case of `C=C1C[C@H]2C(O)N(C(=O)OCCSSCCO)c3cc(OC)c(OC)cc3C(=O)N2C1` (some centres unmarked) [PBD monomer disulfide prodrug 29], the “% Remaining at 24 h by Cys” value [1] is reported as 0%, the IC50 (Igrov-1; Homo sapiens, IGROV-1, 96 h) is reported as 57.8 nM and the IC50 (A2058; Homo sapiens, A2058, 96 h) is reported as 29.1 nM. The IC50 (UACC-257; Homo sapiens, UACC-257, 96 h) was 142 nM and the “% Remaining at 24 h by GSH” value [2] was 0%.

For `C=C1C[C@H]2C(O)N(C(=O)OCC3(SSCCO)CCOC3)c3cc(OC)c(OC)cc3C(=O)N2C1` (some centres unmarked) [PBD monomer disulfide prodrug 22], the “% Remaining at 24 h by Cys” value [1] was 1.4%, the IC50 (Igrov-1; Homo sapiens, IGROV-1, 96 h) was 39.8 nM and the IC50 (A2058; Homo sapiens, A2058, 96 h) was 23.7 nM. For the same molecule, the IC50 (UACC-257; Homo sapiens, UACC-257, 96 h) was 80.6 nM and the “% Remaining at 24 h by GSH” value [2] was 0%.

With `C=C1C[C@H]2C(O)N(C(=O)OC[C@@H](C)SSC3COC3)c3cc(OC)c(OC)cc3C(=O)N2C1` (some centres unmarked) [PBD monomer disulfide prodrug 26] the “% Remaining at 24 h by Cys” value [1] was 29.1%, the IC50 (Igrov-1; Homo sapiens, IGROV-1, 96 h) was 246 nM and the IC50 (A2058; Homo sapiens, A2058, 96 h) was 84.5 nM. For the same molecule, the IC50 (UACC-257; Homo sapiens, UACC-257, 96 h) was 328 nM and the “% Remaining at 24 h by GSH” value [2] was 0%.
